In patent US20030187000A1, “Inhibitors for de novo-RNA polymerases and methods of identifying targets for same” (priority 2002, published 2003) one finds binding affinity data, which are given here for one compound.

This assay addresses T1, NS5B (Hepatitis C virus genotype 1b, UniProt P26663).
T1 construct: the RNA dependent RNA polymerase from hepatitis C virus (NS5B)
In words: Binding studies of thiomethylsulfonate derivatives. Conditions: among heterocyclic/aromatic-substituted thiomethylsulfonate derivatives of FIG. 1. The source says: Cys366 was modified by both compounds (i.e., BMTS and MMTS) and is located in the proximity of the primer-binding site (i.e., initiation nucleotide binding site) of the enzyme. […] Based on these observations, it should especially be recognized that specific modification of Cys366 near the primer-binding site may advantageously be employed for rational inhibitor design. Furthermore, it is contemplated that second-generation compounds may even operate without involvement of the Cys366 (i.e., without formation of a covalent bond) by targeting only the small pocket of the NS5B. To explore the binding affinity and specificity to the cysteines near the active sites of NS5B, a exemplary heterocyclic/aromatic-substituted thiomethylsulfonate derivatives were designed and synthesized as depicted in FIG. 1. […] This compound was also soaked into the polymerase NS5B.

T1 sequence (P26663 2420-3010): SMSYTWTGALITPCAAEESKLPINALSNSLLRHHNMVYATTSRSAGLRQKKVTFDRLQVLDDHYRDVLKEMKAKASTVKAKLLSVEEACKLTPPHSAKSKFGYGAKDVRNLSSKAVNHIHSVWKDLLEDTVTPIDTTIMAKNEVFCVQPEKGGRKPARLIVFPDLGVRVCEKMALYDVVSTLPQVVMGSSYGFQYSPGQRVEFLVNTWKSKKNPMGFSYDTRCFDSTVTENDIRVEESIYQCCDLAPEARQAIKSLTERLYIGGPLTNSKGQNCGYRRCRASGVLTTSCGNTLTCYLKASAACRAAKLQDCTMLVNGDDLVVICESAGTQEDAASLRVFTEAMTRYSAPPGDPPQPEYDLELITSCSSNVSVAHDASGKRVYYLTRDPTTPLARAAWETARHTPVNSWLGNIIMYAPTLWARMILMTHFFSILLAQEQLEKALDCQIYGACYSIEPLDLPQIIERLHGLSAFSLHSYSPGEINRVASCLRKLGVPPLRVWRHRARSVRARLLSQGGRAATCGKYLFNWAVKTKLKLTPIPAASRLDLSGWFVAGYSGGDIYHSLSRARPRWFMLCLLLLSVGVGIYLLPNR

With `CS(=O)(=O)SCc1ccc(Cl)s1` [(5-chlorothiophen-2-yl)methylthiomethylsulfonate], the binding affinity entry was “highest binding affinity”.
